Source: ChEMBL document CHEMBL1201862, “PubChem BioAssay data set” (2004)
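Grown in 96-well plates, cells were treated for 48 hours with each compound at five concentrations. Insufficient inhibition: endpoint recorded as highest concentration tested. GI50 is the concentration that inhibits growth by half.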 Calls of active or inactive are those of the source. Cut-off read from the data, not from the text of the source: active = GI50 up to about 1.1 µM and inactive = higher.

How the values were obtained:
Assay in all cases: NCI-60 cell line screen, 48 h
[1] = system: MOLT-4
[2] = system: UACC-62
[3] = system: NCI-H522
[4] = system: SN12C
[5] = system: MDA-N
[6] = system: HCT-116
[7] = system: ACHN
[8] = system: NCI/ADR-RES
[9] = system: PC-3
[10] = system: NCI-H23
[11] = system: LOX IMVI
[12] = system: UACC-257
[13] = system: Malme-3M
[14] = system: SK-MEL-5
[15] = system: KM12
[16] = system: HOP-92
[17] = system: U-251
[18] = system: HOP-62
[19] = system: SNB-78
[20] = system: RXF 393

SMILES	GI50 [1]	GI50 [2]	GI50 [3]	GI50 [4]	GI50 [5]	GI50 [6]	GI50 [7]	GI50 [8]	GI50 [9]	GI50 [10]	GI50 [11]	GI50 [12]	GI50 [13]	GI50 [14]	GI50 [15]	GI50 [16]	GI50 [17]	GI50 [18]	GI50 [19]	GI50 [20]
COC(=O)N/N=C(/c1nc2ccc([N+](=O)[O-])cc2nc1O)C(O)c1ccc(OC)c(OC)c1 (stereo not given)	33 µM (inactive)	> 100 µM (inactive)	40.5 µM (inactive)	> 100 µM (inactive)	> 100 µM (inactive)	97.1 µM (inactive)	> 100 µM (inactive)	92 µM (inactive)	76.2 µM (inactive)	> 76.7 µM (inactive)	28.5 µM (inactive)	47.1 µM (inactive)	> 100 µM (inactive)	29.8 µM (inactive)	49.9 µM (inactive)	> 100 µM (inactive)	> 100 µM (inactive)	> 60.5 µM (inactive)	28.4 µM (inactive)	> 100 µM (inactive)
CC1OC(CC(=O)O)Cc2c(O)c3c(c(O)c21)C(=O)C=C(C1=CC(=O)c2c(O)c4c(c(O)c2C1=O)CC(CC(=O)O)OC4C)C3=O (stereo not given)	2.69 µM (inactive)	12.8 µM (inactive)	6.25 µM (inactive)	16.6 µM (inactive)		10.9 µM (inactive)	26.1 µM (inactive)			17.6 µM (inactive)	16.5 µM (inactive)	13.4 µM (inactive)	14.5 µM (inactive)	16.4 µM (inactive)	39.1 µM (inactive)	24.3 µM (inactive)	26.1 µM (inactive)	> 100 µM (inactive)	25.8 µM (inactive)	6.14 µM (inactive)
CC[C@@H](C)[C@H]([C@H](CC(=O)N1CCC[C@@H]1[C@@H](OC)[C@H](C)C(=O)N[C@H](Cc1ccccc1)c1nccs1)OC)N(C)C(=O)[C@H](NC(=O)[C@@H](C(C)C)N(C)C)C(C)C	0.000229 µM (active)	0.000175 µM (active)	< 0.01 µM (active)	0.000486 µM (active)	< 0.01 µM (active)	0.000125 µM (active)	0.000439 µM (active)	< 0.01 µM (active)	< 0.01 µM (active)	0.000224 µM (active)	0.000161 µM (active)	0.000262 µM (active)	0.000624 µM (active)	2.51e-05 µM (active)	1.67e-05 µM (active)	0.00104 µM (active)	0.000249 µM (active)	0.000193 µM (active)	0.00108 µM (active)	0.000191 µM (active)
COC[C@@H]1[C@H]2OC(C)(C)O[C@H]2C(=O)N1C(=O)c1ccc(OC)cc1	> 100 µM (inactive)	> 100 µM (inactive)	> 71.8 µM (inactive)	> 100 µM (inactive)		> 100 µM (inactive)	> 100 µM (inactive)			> 100 µM (inactive)	> 100 µM (inactive)	> 100 µM (inactive)	> 100 µM (inactive)	> 100 µM (inactive)	> 100 µM (inactive)	> 100 µM (inactive)	> 100 µM (inactive)	> 100 µM (inactive)	> 100 µM (inactive)	> 100 µM (inactive)
COc1ccc(C2COc3c(ccc(OC)c3OC)C2=O)cc1OC (stereo not given)	> 100 µM (inactive)	> 100 µM (inactive)	> 100 µM (inactive)	> 100 µM (inactive)		> 100 µM (inactive)	> 100 µM (inactive)			> 100 µM (inactive)	> 100 µM (inactive)	> 100 µM (inactive)	> 100 µM (inactive)	> 100 µM (inactive)	> 100 µM (inactive)	> 100 µM (inactive)	> 100 µM (inactive)	> 100 µM (inactive)	> 100 µM (inactive)	> 100 µM (inactive)
O=C1c2ccccc2C(=O)c2sc(Nc3ccccc3Cl)nc21	3.93 µM (inactive)	7.4 µM (inactive)	3.69 µM (inactive)	7.5 µM (inactive)	2.41 µM (inactive)	10.7 µM (inactive)	5.68 µM (inactive)		12.7 µM (inactive)	4.98 µM (inactive)	2.6 µM (inactive)	8.34 µM (inactive)	14.2 µM (inactive)	5.87 µM (inactive)	15 µM (inactive)	13.2 µM (inactive)	4.93 µM (inactive)	16.7 µM (inactive)	13.9 µM (inactive)	16.4 µM (inactive)
CN(C)CCNc1ccc(CO)c2sc3ccc(O)cc3c(=O)c12	0.0262 µM (active)	1.34 µM (inactive)	1.32 µM (inactive)	1.23 µM (inactive)	1.45 µM (inactive)	1.12 µM (inactive)	0.351 µM (active)	3.28 µM (inactive)	1.32 µM (inactive)	0.869 µM (active)	1.11 µM (active)	5.24 µM (inactive)	2.66 µM (inactive)	1.29 µM (inactive)	2.34 µM (inactive)	0.832 µM (active)	0.783 µM (active)	0.204 µM (active)	14.4 µM (inactive)	1.96 µM (inactive)
CCCCCCCCCCCCCCCCCCOCC(COP(=O)([O-])OCC[N+](C)(C)C)OC (stereo not given) [EDELFOSINE]	11.5 µM (inactive)	20.5 µM (inactive)	11.4 µM (inactive)	12.1 µM (inactive)	> 69.3 µM (inactive)	14.7 µM (inactive)	> 72.8 µM (inactive)	42.3 µM (inactive)	7.19 µM (inactive)	41.6 µM (inactive)	15.4 µM (inactive)	24 µM (inactive)	29.6 µM (inactive)	41.8 µM (inactive)	5.09 µM (inactive)	8.75 µM (inactive)	13.6 µM (inactive)	19.2 µM (inactive)	19.3 µM (inactive)	13.9 µM (inactive)
